Values quoted from earlier work in patent US7638651B2, “Substituted cyclohexanones” (Auspex Pharmaceuticals, priority 2007, dated 2009).

Assays:
[1] = for half-life: ketamine: depending on the mode of administration

Row | Compound | potency relative to the R-(−) isomer (more potent than the R-(−) isomer) | blood to plasma ratio ([1]; in vivo) | half-life [1] | potency relative to the parent drug (as potent as the parent drug (ketamine))
1 | CN[C@]1(c2ccccc2Cl)CCCCC1=O (single isomer, unassigned) [S-(+) isomer] | approximately four | – | – | –
2 | CNC1(c2ccccc2Cl)CCCCC1=O (centres unmarked) [Ketamine] | – | ~0.82 | two to about five | –
3 | NC1(c2ccccc2Cl)CCCCC1=O (centres unmarked) [Norketamine, N-desmethylketamine] | – | – | about five | roughly one third
